According to patent US9249161B2, “Bromodomain inhibitors and uses thereof” (Constellation Pharmaceuticals, Inc., priority 2010, dated 2016):
Read-outs that look alike come from different tables or passages of the source. Blank lines part the entries; values can stand above or below the compound they belong to.

Biological target: T1, BRD4(BD1) (Homo sapiens, UniProt O60885)
T1 construct: His; made in house
Assay: BRD4 Alphalisa binding assay
Protocol: IC50 Measurements for Inhibitors Using BRD4 Alphalisa Binding Assay
His/[…] epitope tagged BRD4 BD142-168 was cloned, expressed and purified to homogeneity. BRD4 binding and inhibition was assessed by monitoring the engagement of biotinylated H4-tetraacetyl peptide (Millipore #12-379) with the target using the AlphaLisa technology (Perkin-Elmer). Specifically, in a 384 well ProxiPlate BRD4(BD1) (30 nM final) was combined with peptide (200 nM final) in 40 mM HEPES (pH 7.0), 40 mM NaCl, 1 mM DTT, 0.01% (w/v) BSA, and 0.008% (w/v) Brij-35 either in the presence of DMSO (final 1.2% DMSO) or compound dilution series in DMSO. After 20 minute incubation at room temperature Alpha streptavidin donor beads and AlphaLisa anti-Flag acceptor beads were added to a final concentration of 10 ug/mL each. After three hours equilibration plates were read on an Envision instrument and IC50s calculated using a four parameter non-linear curve fit.

[1] = BRD4(BD1) 30 nM, biotinylated H4-tetraacetyl peptide 200 nM, read-out: BRD4 Alphascreen IC50

SMILES: Cc1sc2c(c1C)C(c1ccc(Cl)cc1)=N[C@]1(C[C@H]1C(N)=O)c1nnc(C)n1-2 [Compound 205, (1S,2R)-4′-(4-Chlorophenyl)-2′,3′,9′-trimethylspiro[cyclo-propane-1,6′-thieno[3,2-f][1,2,4]triazolo[4,3-a][1,4]diazepine]-2-carboxamide]
IC50 [1]: 500 to 1000 nM

SMILES: Cc1sc2c(c1C)C(c1ccc(Cl)cc1)=NC1(CC1)c1nncn1-2 [Compound 217, 4′-(4-Chlorophenyl)-2′,3′-dimethylspiro[cyclopropane-1,6′-thieno[3,2-f][1,2,4]triazolo[4,3-a][1,4]diazepine]]
IC50 [1]: > 1000 nM

SMILES: Cc1sc2c(c1C)C(c1ccc(Cl)cc1)=NC1(CC1)c1nnc(C)n1-2 [Compound 214, 4′-(4-Chlorophenyl)-2′,3′,9′-trimethylspiro[cyclopropane-1,6′-thieno[3,2-f][1,2,4]triazolo[4,3-a][1,4]diazepine]]
IC50: < 500 nM

SMILES: Cc1sc2c(c1C)C(c1ccc(Cl)cc1)=N[C@@]1(C[C@@H]1C)C(=O)N2 [Compound 218, (1R,2S)-5′-(4-chlorophenyl)-2,6′,7′-trimethylspiro[cyclopropane-1,3′-thieno[2,3-e][1,4]diazepin]-2′(1′H)-one]
IC50 [1]: > 1000 nM

SMILES: Cc1nsc2c1C(c1ccc(Cl)cc1)=NC1(CC1)c1nnc(C)n1-2 [Compound 213, 4′-(4-chlorophenyl)-3′,9′-dimethylspiro[cyclopropane-1,6′-isothiazolo[4,5-f][1,2,4]triazolo[4,3-a][1,4]diazepine]]
IC50 [1]: > 1000 nM

SMILES: CCNC(=O)[C@@H]1C[C@]12N=C(c1ccc(Cl)cc1)c1c(sc(C)c1C)-n1c(C)nnc12 [Compound 204, (1S,2R)-4′-(4-chlorophenyl)-N-ethyl-2′,3′,9′-trimethylspiro[cyclopropane-1,6′-thieno[3,2-f][1,2,4]triazolo[4,3-a][1,4]diazepine]-2-carboxamide]
IC50 [1]: > 1000 nM

SMILES: Cc1noc2c1-c1cn(C)nc1C(c1ccc(Cl)cc1)=NC2 [Compound 265, 6-(4-chlorophenyl)-1,8-dimethyl-4,8-dihydroisoxazolo[5,4-c]pyrazolo[4,3-e]azepine]
IC50 [1]: > 1000 nM

SMILES: CCNC(=O)[C@H]1C[C@@]12N=C(c1ccc(Cl)cc1)c1c(sc(C)c1C)-n1c(C)nnc12 [Compound 211, (1R,2S)-4′-(4-chlorophenyl)-N-ethyl-2′,3′,9′-trimethylspiro[cyclopropane-1,6′-thieno[3,2-f][1,2,4]triazolo[4,3-a][1,4]diazepine]-2-carboxamide]
IC50 [1]: > 1000 nM

SMILES: Cc1sc2c(c1C)C(c1ccc(Cl)cc1)=N[C@@]1(C[C@@H]1C)c1nnc(C)n1-2 [Compound 219, (1R,2S)-4′-(4-chlorophenyl)-2,2′,3′,9′-tetramethylspiro-[cyclopropane-1,6′-thieno[3,2-f][1,2,4]triazolo[4,3-a][1,4]diazepine]]
IC50 [1]: < 500 nM

SMILES: Cc1noc2c1-c1ccc(Cl)cc1C(c1ccc(F)cc1)=NC21CC1 [Compound 250, 8-Chloro-6-(4-fluorophenyl)-1-methylspiro[benzo[c]isoxazolo[4,5-e]azepine-4,1′-cyclopropane]]
IC50 [1]: > 1000 nM

SMILES: Cc1sc2c(c1C)C(c1ccc(Cl)cc1)=NC1(CNC1)c1nnc(C)n1-2 [Compound 224, 4′-(4-chlorophenyl)-2′,3′,9′-trimethylspiro[azetidine-3,6′-thieno[3,2-f][1,2,4]triazolo[4,3-a][1,4]diazepine]]
IC50 [1]: > 1000 nM

SMILES: CCNC[C@@H]1C[C@]12N=C(c1ccc(Cl)cc1)c1c(sc(C)c1C)-n1c(C)nnc12 [Compound 208, N-(((1S,2S)-4′-(4-Chlorophenyl)-2′,3′,9′-trimethylspiro[cyclopropane-1,6′-thieno[3,2-f][1,2,4]triazolo[4,3-a][1,4]diazepin]-2-yl)methyl)ethanamine]
IC50 [1]: < 500 nM

SMILES: CCNC(=O)[C@@H]1C[C@@]12N=C(c1ccc(Cl)cc1)c1c(sc(C)c1C)-n1c(C)nnc12 [Compound 212, (1R,2R)-4′-(4-Chlorophenyl)-N-ethyl-2′,3′,9′-trimethylspiro-[cyclopropane-1,6′-thieno[3,2-f][1,2,4]triazolo[4,3-a][1,4]diazepine]-2-carboxamide]
IC50 [1]: > 1000 nM

SMILES: COC[C@@H]1C[C@]12N=C(c1ccc(Cl)cc1)c1c(sc(C)c1C)-n1c(C)nnc12 [Compound 202, (1S,2R)-4′-(4-chlorophenyl)-2-(methoxymethyl)-2′,3′,9′-trimethylspiro[cyclopropane-1,6′-thieno[3,2-f][1,2,4]triazolo[4,3-a][1,4]diazepine]]
IC50 [1]: < 500 nM

SMILES: CC(=O)NC[C@@H]1C[C@]12N=C(c1ccc(Cl)cc1)c1c(sc(C)c1C)-n1c(C)nnc12 [Compound 207, N-(((1S,2S)-4′-(4-Chlorophenyl)-2′,3′,9′-trimethylspiro[cyclopropane-1,6′-thieno[3,2-f][1,2,4]triazolo[4,3-a][1,4]diazepin]-2-yl)methyl)acetamide]
IC50 [1]: < 500 nM

SMILES: Cc1sc2c(c1C)C(c1ccc(Cl)cc1)=N[C@]1(C[C@H]1C)c1n[nH]c(=O)n1-2 [Compound 222, (1S,2R)-4′-(4-chlorophenyl)-2,2′,3′-trimethylspiro[cyclopropane-1,6′-thieno[3,2-f][1,2,4]triazolo[4,3-a][1,4]diazepin]-9′(8′H)-one 2,2,2-trifluoroacetic acid]
IC50 [1]: > 1000 nM

SMILES: Cc1nnc2n1-c1ccccc1C(c1ccc(Cl)cc1)=NC21CC1 [Compound 216, 6-(4-chlorophenyl)-1-methylspiro[benzo[f][1,2,4]triazolo[4,3-a][1,4]diazepine-4,1′-cyclopropane]]
IC50 [1]: < 500 nM

SMILES: Cc1sc2c(c1C)C(c1ccc(Cl)cc1)=NC1(CCC1)c1nnc(C)n1-2 [Compound 223, 4′-(4-chlorophenyl)-2′,3′,9′-trimethylspiro[cyclobutane-1,6′-thieno[3,2-f][1,2,4]triazolo[4,3-a][1,4]diazepine]]
IC50 [1]: < 500 nM

Next, values leading:

IC50 [1]: < 500 nM
SMILES: Cc1noc2c1-c1ccc(-c3ccc(N)nc3)cc1C(c1ccc(F)cc1)=NC21CC1 [Compound 251, 5-(6-(4-Fluorophenyl)-1-methylspiro[benzo[c]isoxazolo[4,5-e]azepine-4,1′-cyclopropan]-8-yl)pyridin-2-amine]

IC50 [1]: < 500 nM
SMILES: Cc1sc2c(c1C)C(c1ccc(Cl)cc1)=N[C@]1(C[C@H]1CN)c1nnc(C)n1-2 [Compound 206, ((1S,2S)-4′-(4-Chlorophenyl)-2′,3′,9′-trimethylspiro[cyclo-propane-1,6′-thieno[3,2-f][1,2,4]triazolo[4,3-a][1,4]diazepin]-2-yl)methanamine]

IC50 [1]: < 500 nM
SMILES: Cc1sc2c(c1C)C(c1ccc(Cl)cc1)=NC1(COC1)c1nnc(C)n1-2 [Compound 226, 4′-(4-Chlorophenyl)-2′,3′,9′-trimethylspiro[oxetane-3,6′-thieno[3,2-f][1,2,4]triazolo[4,3-a][1,4]diazepine]]

IC50 [1]: < 500 nM
SMILES: Cc1sc2c(c1C)C(c1ccc(Cl)cc1)=N[C@@]1(C[C@@H]1CO)c1nnc(C)n1-2 [Compound 210, ((1R,2S)-4′-(4-Chlorophenyl)-2′,3′,9′-trimethylspiro[cyclo-propane-1,6′-thieno[3,2-f][1,2,4]triazolo[4,3-a][1,4]diazepin]-2-yl)methanol]

IC50 [1]: < 500 nM
SMILES: Cc1sc2c(c1C)C(c1ccc(Cl)cc1)=N[C@]1(C[C@H]1CO)c1nnc(C)n1-2 [Compound 203, ((1S,2R)-4′-(4-chlorophenyl)-2′,3′,9′-trimethylspiro[cyclopropane-1,6′-thieno[3,2-f][1,2,4]triazolo[4,3-a][1,4]diazepin]-2-yl)methanol]

IC50 [1]: < 500 nM
SMILES: Cc1sc2c(c1C)C(c1ccc(Cl)cc1)=NC1(CC1C)c1nnc(C)n1-2 (racemic) [Compound 215, 4′-(4-chlorophenyl)-2,2′,3′,9′-tetramethylspiro[cyclopropane-1,6′-thieno[3,2-f][1,2,4]triazolo[4,3-a][1,4]diazepine]]

IC50 [1]: < 500 nM
SMILES: COC[C@H]1C[C@@]12N=C(c1ccc(Cl)cc1)c1c(sc(C)c1C)-n1c(C)nnc12 [Compound 209, (1R,2S)-4′-(4-chlorophenyl)-2-(methoxymethyl)-2′,3′,9′-trimethylspiro[cyclopropane-1,6′-thieno[3,2-f][1,2,4]triazolo[4,3-a][1,4]diazepine]]

IC50 [1]: < 500 nM
SMILES: Cc1sc2c(c1C)C(c1ccc(Cl)cc1)=N[C@]1(C[C@H]1C)c1nnc(C)n1-2 [Compound 220, (1S,2R)-4′-(4-chlorophenyl)-2,2′,3′,9′-tetramethyl-spiro[cyclopropane-1,6′-thieno[3,2-f][1,2,4]triazolo[4,3-a][1,4]diazepine]]

IC50 [1]: < 500 nM
SMILES: Cc1sc2c(c1C)C(c1ccc(N)cc1)=N[C@]1(C[C@H]1C)c1nnc(C)n1-2 [Compound 221, 4-((1S,2R)-2,2′,3′,9′-tetramethylspiro[cyclopropane-1,6′-thieno[3,2-f][1,2,4]triazolo[4,3-a][1,4]diazepin]-4′-yl)aniline]
